Experimental data reported in article PMC10394516, “The pharmacokinetic profile of brensocatib and its effect on pharmacodynamic biomarkers including NE, PR3, and CatG in various rodent species” (Frontiers in Pharmacology, 2023).

Tested on: NSPs (NE, PR3, CatG)
Assay: PD recovery study, bone marrow NSP activities (all three NSPs), C57BL/6 mice
Assay type: in vivo
Conditions: after 8 days of 5 mg/kg BID
Procedure: A PD recovery study was performed in female C57BL/6 mice dosed BID for 8 consecutive days. Mice were dosed by oral gavage either with vehicle (0 mg/kg) or 5 mg/kg brensocatib (BID; 10 mg/kg/day). After 8 consecutive days of dosing, the animals were maintained without further treatment until prescribed sacrifice (days: 1, 3, 6, 8, and 10 days post final dose). Plasma was collected from animals during the first 24 h of dosing at −0.5 (half-hour prior to dosing), 1, 8, 9, and 24 h post initial dose. Note that the 8- and 24-h plasma samples were prior to the afternoon dose and prior to the second day dose, respectively. Plasma was used for PK analysis via LC-MS/MS. […]
Bone marrow lysates prepared as described above were diluted and plated onto 96-well assay plates to quantify NSP activities as described previously ([Basso et al., 2022]). […] The specific NSP activity in each sample was calculated as the total activity minus the activity in the presence of a specific NSP inhibitor (if used), including elastase inhibitor (Abcam) for NE, sivelestat (Abcam) for PR3, and cathepsin G inhibitor I (Cayman Chemical; Ann Arbor, MI) for CatG. […] A portion of each cell lysate sample was retained for protein quantification using a Pierce™ BCA Protein Assay Kit (Thermo Fisher). […]

Cn1c(=O)oc2ccc(-c3ccc(C[C@@H](C#N)NC(=O)[C@@H]4CNCCCO4)cc3)cc21 [brensocatib]
Time to full recovery of NSP activity (visually): 6–8 days post final dose
